Legend:
U373 tumour cells = assay: Southern blot of adenoviral replication in U373 cells after cytostatic; format: cell-based
Procedure: In order to determine the effect of Irinotecan on adenoviral replication 10^6 U373 tumour cells were plated in 10 cm^2 Petri dishes. In a first reaction 5 μM Irinotecan was added after 24 hours. After another 24 hours the cells were infected with 10 pfu/cell dl520. After incubation of 3 days without Irinotecan DNA was isolated in accordance with the procedure described in example 10.
In a parallel reaction the thus prepared U373-cells were not pre-incubated with Irinotecan. After 48 hours of cultivating the cells without Irinotecan, they were infected with 10 pfu/cell dl520 and subsequently incubated without Irinotecan for another 3 days. DNA was isolated as described above.
Subsequently 2 μg DNA were digested with restriction enzyme Kpn I and a Southern Blot analysis performed. A part of the adenoviral genome (position: 22734-24235) generated by means of PCR was used as a probe.
In order to test the effect of Trichostatin A on adenoviral replication, 10^6 U373 tumour cells were plated in 10 cm^2 Petri dishes. After 24 hours 0.25, 0.5 and 0.75 μM Trichostatin A was added. After another 24 hours the cells were infected with 10 pfu/cell dl520.
After 3 days of incubation in medium without Trichostatin DNA was isolated. Subsequently 2 μg DNA were digested with restriction enzyme Kpn I and a Southern Blot analysis performed. […]

[1] = test system: Coxsackievirus-adenovirus-receptor (CAR); assay: FACS analysis of CAR expression on U373 cells; format: cell-based; settings: 1 μM Trichostatin
Procedure: 200,000 U373 cells were plated in 6 well plates. After 24 hours the cells were cultivated with 1 μM Trichostatin for 24 hours. After another 24 hours the cells were isolated. Subsequently, analysis of CAR expression was performed according to a standard protocol using Facs-analysis and the primary antibody anti-CAR clone RmcB from the company Upstate, and a rabbit-anti-mouse FITC as secondary antibody (company DAKO).

U2OS cells = assay: Oncolytic assay with daunorubicine, U2OS; format: cell-based, human; settings: 40 ng/ml daunorubicine
Procedure: (§1) In the practising of the oncolytic assays the following procedure was followed: 200,000 cells (HeLa and U2OS, respectively) were plated into each well of a 6 well plate. On the next day 40 ng/ml (final concentration) of daunorubicine were added. After 3 hours of incubation the cells were infected with 10 and 30 pfu dl520/cell, respectively. Subsequently, the cells were incubated in cytostatic free medium. After 3-5 days the cells were stained using crystal violet.

HeLa cells = assay: Oncolytic assay with daunorubicine, HeLa; format: cell-based; settings: 40 ng/ml daunorubicine
Procedure: as §1

Structure (SMILES): CCc1c2c(nc3ccc(OC(=O)N4CCC(N5CCCCC5)CC4)cc13)-c1cc3c(c(=O)n1C2)COC(=O)[C@]3(O)CC [Irinotecan]
- adenoviral replication (dl520) compared to untreated control (U373 tumour cells; 5 μM Irinotecan 24 h before 10 pfu/cell dl520, 3 days): significantly increased

Structure (SMILES): CC(/C=C/C(=O)NO)=C\[C@@H](C)C(=O)c1ccc(N(C)C)cc1 [Trichostatin A]
- adenoviral replication (dl520) compared to untreated controls (U373 tumour cells; 0.25, 0.5 and 0.75 μM Trichostatin A 24 h before 10 pfu/cell dl520, 3 days): significantly increased
- CAR-positive cells [1]: 56.2%

Structure (SMILES): COc1cccc2c1C(=O)c1c(O)c3c(c(O)c1C2=O)C[C@@](O)(C(C)=O)C[C@@H]3O[C@H]1C[C@H](N)[C@H](O)[C@H](C)O1 [daunorubicine]
- effect on replication of dl520 (U2OS cells): induces the replication of dl520
- effect on replication of dl520 (HeLa cells): induces the replication of dl520

Source: patent publication US8586354B2, “Adenoviruses, nucleic acids that code for the same and the use of said viruses” (priority 2003, dated 2013)
